SMILES strings stand for the structures.

Data set [1] deals with mTOR activity (phospho-p70S6K). The experiment in a line: phospho-p70S6K FACS in activated mouse T-cells. The format is cell-based.
The subject of data set [2] is CD8 cells isolated from p14 transgenic mice. Put plainly: CD8 CTV-labelled proliferation assay. The format is cell-based, mouse. The conditions noted are these: activated for 72 hours; 10 nM, 100 nM, and 100 μM. As to the method:
The five analogs and rapamycin were assayed for their effect on proliferation and correlation to p70S6K inhibitory activity. […] The proliferation was measured by FACS. The five analogs were tested at varying concentrations (10 nM, 100 nM, and 100 μM), activated for 72 hours with rapamycin and DMSO treated controls.
CD8 cells were isolated from p14 transgenic mice, then labelled with CTV. The labelled cells then were activated with plate-bound anti-CD3 (5 μg/mL) and soluble anti-CD28 (2 μg/mL), along with rapamycin, rapamycin analog, or DMSO. After activation of 48 hours and 72 hours, the cells were collected to assay the CVT labelling signal using flow cytometry. All rapamycin analogs decrease proliferation in CD8 cells, with varying potency (FIG. 12).

Another data set has as its system naïve CD4+ mouse T-cells. The experiment in a line: expansion of CD62L+ memory T-cells (FACS). The format is cell-based. As to the method: RAP23 was further evaluated by treating naïve CD4+ T-cells at multiple concentrations (1 nM to 1 uM) for expansion of CD62L+ memory T-cells. […] These 5 compounds were identified to have reduced immunosuppression (with improved safety) with maximum and durable expansion of memory T-cells.

A further data set deals with conventional T cells. The experiment in a line: culture of conventional T cells with RAP35. The format is cell-based.
The subject of the next data set is Treg cells. Put plainly: treatment of Treg cells with expander beads. The format is cell-based. To be noted: 100 nM.
For another data set, the system named is naïve CD4+ mouse T cells. Put plainly: FACS of naïve CD4+ T cells for CD4+CD25+FOXP3+. The conditions noted are these: 1 uM.
Data set [3] in a line: stability during semi-preparative HPLC. The format is physicochemical. To be noted: approximately one fifth transformed spontaneously to a more nonpolar compound. Here is the method:
To accumulate 35-desmethylrapamycin (RAP35) and 35-desmethyl-27-demethoxyrapamycin (RAP35/27) for characterization and bioactivity assays, a 7.2-L scale of fermentation was conducted. 7.2 L fermentation medium was prepared and aliquoted into eighteen 2 L Erlenmeyer flasks 20 mL of the seed culture was inoculated into each 2 L Erlenmeyer flask, which was then capped with 8-layer gauze. The fermentation was conducted at 28° C., 220 rpm for 4 days. To process the culture, the fermentation broth was centrifuged at 9,000 g for 10 min at room temperature, and the cell pellet was collected and combined. After transferring the cells into a 5 L glass beaker, 2 volumes of acetonitrile were added into 1 volume of the cells. The mixture was stirred vigorously using a magnetic stirrer at room temperature for 1 h. The mixing was halted, and the mixture was allowed to settle under gravity for 30 min. The solvent layer was poured into a 5 L Erlenmeyer flask, and another 2 volumes of acetonitrile was added into the cells for extraction. After three times of extraction in total, the solvent layers were combined and concentrated under reduced pressure. […] The absorbance at 278 nm wavelength was monitored. […]

In the case of `CO[C@H]1C[C@@H]2CC[C@@H](C)[C@@](O)(O2)C(=O)C(=O)N2CCCC[C@H]2C(=O)O[C@H]([C@H](C)C[C@@H]2CC[C@@H](O)[C@H](OC)C2)CC(=O)[C@H](C)/C=C(\C)[C@@H](O)[C@@H](OC)C(=O)[C@H](C)CC/C=C/C=C/C=C/1C` [RAP23, (3S,6R,7E,9R,10R,12R,15E,17E,19E,21 S,23S,26R,27R,34aS)-9,27-dihydroxy-3-((R)-1-((1S,3R,4R)-4-hydroxy-3-methoxycyclohexyl)propan-2-yl)-10,21-dimethoxy-6,8,12,20,26-pentamethyl-9,10,12,13,14,21,22,23,24,25,26,27,32,33,34,34a-hexadecahydro-3H-23,27-epoxypyrido[2,1-c][1]oxa[4]azacyclohentriacontine-1,5,11,28,29(41H,6H,31H)-pentaone], the “inhibition of p70S6 high signal” value in data set [1] (even at 1 uM) is recorded as “never fully inhibited”. Further, the “proliferation relative to RAP35 and rapamycin” value in data set [2] is “increased proliferation”. Moreover, the “generation of memory versus inhibition of proliferation” value in the data set with naïve CD4+ mouse T-cells is on record as “promote potent generation of memory without potently inhibiting proliferation”. Also, in the data set with naïve CD4+ mouse T-cells (1 nM to 1 uM), the “phospho-p70S6K low/CD62L+ high phenotype relative to all doses of rapamycin” value was “reduced” and the “portion of cells with phospho-p70S6K high/CD62L+ high phenotype” value is on record as 7-10%.

As to `CO[C@H]1C[C@@H]2CC[C@@H](C)[C@@](O)(O2)C(=O)C(=O)N2CCCC[C@H]2C(=O)O[C@H](CC[C@@H]2CC[C@@H](O)[C@H](OC)C2)CC(=O)[C@H](C)/C=C(\C)[C@@H](O)[C@@H](OC)C(=O)[C@H](C)C[C@H](C)/C=C/C=C/C=C/1C` [RAP35, (3R,6R,7E,9R,10R,2R,14S,15E,17E,19E,21S,23S,26R,27R,34aS)-9,27-dihydroxy-3-(2-((1S,3R,4R)-4-hydroxy-3-methoxycyclohexyl)ethyl)-10,21-dimethoxy-6,8,12,14,20,26-hexamethyl-9,10,12,13,14,21,22,23,24,25,26,27,32,33,34,34a-hexadecahydro-3H-23,27-epoxypyrido[2,1-c][1]oxa[4]azacyclohentriacontine-1,5,11,28,29(4H,6H,31H)-pentaone], in data set [1] (overnight stimulation, therapeutic concentrations (1-200 nM)), the p70S6 high cells result was “significantly reduced”. Moreover, in the data set on conventional T cells, the CCR7 expression result is reported as “increased” and the CD45RO expression result was “decreased”. Besides, the “level of phosphorylation of 4EBP1 and S6” value in the data set on conventional T cells (100 nM) is given as “mTOR pathway was being targeted”. The anti-inflammatory effects entry in the data set on conventional T cells (Cell Proliferation Dye and phenotypic markers) is given as “promising anti-inflammatory effects”. In the data set with Treg cells, the “expression of CCR7” value is listed as “reduce”, the “expression of CD45RO” value is on record as “reduce”, the “expression of CXCR3” value was “reduce” and the “phosphorylation of 4EBP1” value was “reduce”. For the same compound, in the data set on Treg cells, the “phosphorylation of S6” value is given as “reduce”. Also, the effect on differentiation result with naïve CD4+ mouse T cells is recorded as “strong effect”.

Turning to `CO[C@H]1C[C@@H]2CC[C@@H](C)[C@@](O)(O2)C(=O)C(=O)N2CCCC[C@H]2C(=O)O[C@H](CC[C@@H]2CC[C@@H](O)[C@H](OC)C2)CC(=O)[C@H](C)/C=C(\C)[C@@H](O)CC(=O)[C@H](C)C[C@H](C)/C=C/C=C/C=C/1C` [RAP35/27A, (3R,6R,7E,9S,12R,14S,5E,17E,19E,21S,23S,26R,27R,34aS)-9,27-dihydroxy-3-(2-((1S,3R,4R)-4-hydroxy-3-methoxycyclohexyl)ethyl)-21-methoxy-6,8,12,14,20,26-hexamethyl-9,10,12,13,14,21,22,23,24,25,26,27,32,33,34,34a-hexadecahydro-3H-23,27-epoxypyrido[2,1-c][1]oxa[4]azacyclohentriacontine-1,5,11,28,29(4H,6H,31H)-pentaone], the “stability in the process of semi-preparation” value in data set [3] is on record as “tended to be unstable”.

These data come from patent publication US20240350463A1, “SMALL MOLECULE COMPOUNDS” (APERTOR PHARMACEUTICALS, INC., priority 2021, published 2024).
